Assay results reported in US20100099897A1, “STABLE ANHYDROUS CRYSTALLINE DOCETAXEL AND METHOD FOR THE PREPARATION THEREOF” (HANMI PHARM. CO., LTD., priority 2007, published 2010).

How the values were obtained:
[1] = Stability under a high temperature/humidity condition (HPLC purity after aging); format: physicochemical; conditions: for Purity after 1 week / Purity after 2 weeks / Purity after 4 weeks / Initial purity / Purity after 8 weeks: HPLC; for Initial purity: before aging
Procedure: The long-term storage stabilities of anhydrous crystalline forms of docetaxel prepared in Examples 1, 4, 5, and 6, respectively were compared with that of docetaxel trihydrate prepared according to the method of U.S. Pat. No. 6,022,985 by subjecting sample thereof to aging under a high temperature/humidity condition (60±2° C.; 75±5% relative humidity). The amounts of the original compound in each sample after 1, 2, 4 and 8 weeks were determined by high performance liquid chromatography (HPLC).

[2] = Storage for 7 days at 40° C. under a relative humidity of 25% to 50%; format: physicochemical; conditions: comparable condition: 7 days, relative humidity 25% to 50%
[3] = 60±2° C., 75±5% relative humidity

Row | Structure (SMILES) | Purity after 1 week [1, 3] [%] | Purity after 2 weeks [1, 3] [%] | Purity after 4 weeks [1, 3] [%] | Storage stability under a high temperature/humidity condition (in words) ([1]; 60±2° C., 75±5% relative humidity, up to 8 weeks) | Initial purity [1] [%] | Dehydration during storage [2] | Purity after 8 weeks [1, 3] [%]
1 | CC(=O)O[C@@]12CO[C@@H]1C[C@H](O)[C@@]1(C)C(=O)[C@H](O)C3=C(C)[C@@H](OC(=O)[C@H](O)[C@@H](NC(=O)OC(C)(C)C)c4ccccc4)C[C@@](O)([C@@H](OC(=O)c4ccccc4)[C@H]21)C3(C)C [Docetaxel trihydrate, docetaxel trihydrate, reference compound] | 99.3 | 99.0 | 98.7 | rapid degradation | 99.4 | at least 50% | 
2 | CC(=O)O[C@@]12CO[C@@H]1C[C@H](O)[C@@]1(C)C(=O)[C@H](O)C3=C(C)[C@@H](OC(=O)[C@H](O)[C@@H](NC(=O)OC(C)(C)C)c4ccccc4)C[C@@](O)([C@@H](OC(=O)c4ccccc4)[C@H]21)C3(C)C [Example 1, docetaxel] | 99.8 | 99.8 | 99.7 |  | 99.8 |  | 99.6
3 | CC(=O)O[C@@]12CO[C@@H]1C[C@H](O)[C@@]1(C)C(=O)[C@H](O)C3=C(C)[C@@H](OC(=O)[C@H](O)[C@@H](NC(=O)OC(C)(C)C)c4ccccc4)C[C@@](O)([C@@H](OC(=O)c4ccccc4)[C@H]21)C3(C)C [Example 4, docetaxel] | 99.8 | 99.7 | 99.6 |  | 99.8 |  | 99.5

Now from value to compound:

Row | Purity after 1 week [1, 3] [%] | Purity after 2 weeks [1, 3] [%] | Purity after 4 weeks [1, 3] [%] | Storage stability under a high temperature/humidity condition (in words) ([1]; 60±2° C., 75±5% relative humidity, up to 8 weeks) | Initial purity [1] [%] | Dehydration during storage [2] | Purity after 8 weeks [1, 3] [%] | Structure (SMILES)
4 | 99.7 | 99.7 | 99.6 |  | 99.7 |  | 99.6 | CC(=O)O[C@@]12CO[C@@H]1C[C@H](O)[C@@]1(C)C(=O)[C@H](O)C3=C(C)[C@@H](OC(=O)[C@H](O)[C@@H](NC(=O)OC(C)(C)C)c4ccccc4)C[C@@](O)([C@@H](OC(=O)c4ccccc4)[C@H]21)C3(C)C [Example 5, docetaxel]
5 | 99.7 | 99.7 | 99.6 |  | 99.7 |  | 99.5 | CC(=O)O[C@@]12CO[C@@H]1C[C@H](O)[C@@]1(C)C(=O)[C@H](O)C3=C(C)[C@@H](OC(=O)[C@H](O)[C@@H](NC(=O)OC(C)(C)C)c4ccccc4)C[C@@](O)([C@@H](OC(=O)c4ccccc4)[C@H]21)C3(C)C [Example 6, docetaxel]
